Measurements reported in patent US11648316B2, “Oral pharmaceutical composition containing pemetrexed and production method thereof” (ICURE BNP CO., LTD., priority 2017, dated 2023).
Read-outs that look alike come from different tables or passages of the source.

Key:
[1] = rat, in vivo, iv, 5 mg/kg
Experimental: (§1) Separately, in order to evaluate oral bioavailability, a solution of pemetrexed in distilled water was injected in an amount of 200 μl into rats through the tail vein thereof. Blood samples (200 μl) were collected at scheduled times after individual drug administrations and immediately mixed with 50 μl of a sodium citrate (3.8%) solution. The collected blood samples were centrifuged at 2,500×g and 4° C. for 15 min, pemetrexed in plasma was extracted using a solid-phase extraction (SPE) cartridge, and the concentration of pemetrexed was measured through liquid chromatography/mass spectrometry (LC/MS).
(§2) Each value represents mean±standard deviation (n=4 in each group).

in vivo = conditions: rat
Experimental: as §1, §2

[2] = Artificial intestinal membrane permeability (PAMPA), Example 7; format: in vitro ADME; conditions: PBS pH 6.8, pemetrexed 200 μg/ml, room temperature, 5 hr
Description: The intestinal membrane permeability of pemetrexed (PMX), the mixture of hydroxypropyl beta-cyclodextrin and pemetrexed (HP-beta CD/PMX), the mixture of hydroxypropyl beta-cyclodextrin and PMX/DCK ion-binding complex (HP-beta CD/PMX/DCK), the mixture of hydroxypropyl beta-cyclodextrin, PMX/DCK ion-binding complex and poloxamer (HP-beta CD/PMX/DCK/P188) prepared in Example 4, and the w/o/w nanoemulsion including the mixture of hydroxypropyl beta-cyclodextrin, PMX/DCK ion-binding complex and poloxamer (HP-beta CD/PMX/DCK/P188) prepared in Example 5 was evaluated using an artificial intestinal membrane (PAMPA; BD Biosciences, San Jose, Calif., USA).
Each sample was diluted with phosphate-buffered saline (PBS, pH 6.8) so that the concentration of pemetrexed was 200 μg/ml, and was then added in an amount of 200 μl to the donor compartment of each well of a PAMPA plate, each acceptor compartment thereof was added with 300 μl of phosphate-buffered saline (PBS, pH 6.8), and the donor compartment and the acceptor compartment were linked and then allowed to stand at room temperature for 5 hr, after which the sample was recovered from the donor compartment and the acceptor compartment of each well of the PAMPA plate and the concentration of the permeated drug was measured as follows. […]
The effective permeability (Pe) of each drug was calculated using the following equation. […]

[3] = system: Caco-2 cell monolayer membrane; test: Intestinal cell membrane permeability, Caco-2 cell monolayer, Example 9; format: in vitro ADME; conditions: Caco-2 monolayer, apical to basolateral, pemetrexed 200 μg/ml in HBSS, 37° C., up to 5 hr
Experimental: Caco-2 cells were treated at 3×10^5 cells in each well of a 12-well Transwell (pore size: 0.4 μm, surface area: 1.12 cm^2; Corning, N.Y., USA). Dulbecco's modified Eagles medium (DMEM; Lonza, Basel, Switzerland) containing 10% fetal bovine serum (FBS; Gibco™, Thermo Fisher Scientific) and 1% penicillin/streptomycin (Gibco™) was replaced every 48 hr for 21 days to 29 days, and a Caco-2 cell membrane having a transepithelial electrical resistance (TEER) of 350 Ωcm^2 or more was used for in-vitro intestinal cell membrane permeability tests.
Specifically, the culture medium was removed, culture was performed at 37° C. for 20 min with 0.5 ml of a Hanks' balanced salt solution (HESS), HBSS was removed, and each sample was diluted with HBSS so that the concentration of pemetrexed was 200 μg/ml, after which each sample thus diluted was added in an amount of 0.5 ml to the apical compartment of the Transwell, and the basolateral compartment of the Transwell was added with 1.5 ml of HBSS, followed by culturing at 37° C. After sample treatment, 100 μl of the sample was collected from the basolateral compartment of each well at 0.5, 1, 2, 3, 4 and 5 hr and then filtered with a membrane filter, after which the concentrations of PMX and the PMX/DCK ion-binding complex that permeated the intestinal cell membrane were measured using the same HPLC system as in Example 7. […]

[4] = In-vivo bioavailability of oral nanoemulsion in rats, Example 11; conditions: rat
[5] = Artificial intestinal membrane permeability (PAMPA) of nanoemulsion with quercetin, Example 8; format: in vitro ADME; conditions: PBS pH 6.8, quercetin 400 μg/ml, room temperature, 5 hr, analyte quercetin
Experimental: The intestinal membrane permeability of pemetrexed (PMX), quercetin and the w/o/w secondary nanoemulsions including the mixture of hydroxypropyl beta-cyclodextrin, PMX/DCK ion-binding complex and poloxamer (HP-beta CD/PMX/DCK/P188) prepared in Example 5 and quercetin was evaluated using an artificial intestinal membrane (PAMPA; BD Biosciences, San Jose, Calif., USA).
Each sample was diluted with phosphate-buffered saline (PBS, pH 6.8) so that the concentration of pemetrexed was 200 μg/ml and the concentration of quercetin was 400 μg/ml, and was then added in an amount of 200 μl to the donor compartment of each well of a PAMPA plate, each acceptor compartment thereof was added with 300 μl of phosphate-buffered saline (PBS, pH 6.8), and the donor compartment and the acceptor compartment were linked and then allowed to stand at room temperature for 5 hr, after which the sample was recovered from the donor compartment and the acceptor compartment of each well of the PAMPA plate, and the concentration of the permeated drug was measured as follows.
The concentrations of PMX and PMX/DCK were analyzed by introducing 20 μl of the sample into an HPLC system with a C18 column (4.6×250 mm, 5 μm, 100 □) and allowing a mixture of purified water (pH 3.2, adjusted with phosphoric acid) and acetonitrile at 80:20 (v/v) as a mobile phase to flow at a flow rate of 1.0 ml/min. […]

Nc1nc2[nH]cc(CCc3ccc(C(=O)N[C@@H](CCC(=O)O)C(=O)O)cc3)c2c(=O)[nH]1 [PMX, Pemetrexed]
AUCinf [1]: 9,414.5 ± 4,223.6 ng · h/ml | AUClast [1]: 9,377.5 ± 4,169.4 ng · h/ml | Cmax [1]: 15,318 ± 6100.3 ng/ml | T1/2 [1]: 0.35 ± 0.08 h | bioavailability (in vivo): 1.49% | bioavailability (in vivo; iv, 5 mg/kg): 100% | AUC(0-inf) (in vivo; po, 50 mg/kg): 2560 ng·h/mL | AUC(0-t) (in vivo; po, 50 mg/kg): 1390 ng·h/mL | Cmax (in vivo; po, 50 mg/kg): 452 ± 221 ng/mL | Tmax (in vivo; po, 50 mg/kg): 0.83 ± 0.58 h | half-life (in vivo; po, 50 mg/kg): 6.06 ± 1.83 h | Permeability (effective permeability Pe of pemetrexed) [2]: 3.73 ± 1.15 ×10^−6, cm/s | Permeability (apparent permeation coefficient Papp) [3]: 0.50 ± 0.09 ×10^−6, cm/s | Bioavailability (oral, compared to intravenous injection) [4]: 12.0% | AUCinf ([4]; iv, 10 mg/kg): 29,390 ± 4,844 ng · h/ml | AUClast ([4]; iv, 10 mg/kg): 31,340 ± 5,342 ng · h/ml | Cmax ([4]; iv, 10 mg/kg): 32,220 ± 13,900 ng/ml | T1/2 ([4]; iv, 10 mg/kg): 0.57 ± 0.07 h | bioavailability ([4]; iv, 10 mg/kg): 100% | AUCinf ([4]; po, 20 mg/kg): 14,300 ± 2,272 ng · h/ml | AUClast ([4]; po, 20 mg/kg): 7,546±938 ng · h/ml | Cmax ([4]; po, 20 mg/kg): 1,487±332 ng/ml | Tmax ([4]; po, 20 mg/kg): 2.75 ± 3.50 h | half-life ([4]; po, 20 mg/kg): 7.55 ± 0.94 h

O=c1c(O)c(-c2ccc(O)c(O)c2)oc2cc(O)cc(O)c12 [Quercetin, quercetin]
Permeability (effective permeability Pe of quercetin) [5]: 4.51 ± 5.10 ×10^−6, cm/s
